Experimental data as given in patent US10669269B2, “Substituted N-(1H-indazol-4-yl)imidazo[1,2-a]pyridine-3-carboxamide compounds as type III receptor tyrosine kinase inhibitors” (ARRAY BIOPHARMA INC., priority 2010, dated 2020).
Counter-ions that a name gives are not always drawn.

Legend:
cFMS = molecular target: T1, cFMS (Homo sapiens, UniProt P07333); assay: cFMS Cell-Based Assay (Example C); settings: averaged IC50; phospho-cFMS in THP-1 cells stimulated with 250 ng/mL recombinant human MCSF; read-out: cFMS Cell ELISA IC50
T1 construct: THP-1 cells (human acute monocytic leukemia cell line) were serum-starved for 4 hours; endogenous in cells; host or cells: THP-1 cells (human acute monocytic leukemia cell line)
T1 sequence (P07333 20-972): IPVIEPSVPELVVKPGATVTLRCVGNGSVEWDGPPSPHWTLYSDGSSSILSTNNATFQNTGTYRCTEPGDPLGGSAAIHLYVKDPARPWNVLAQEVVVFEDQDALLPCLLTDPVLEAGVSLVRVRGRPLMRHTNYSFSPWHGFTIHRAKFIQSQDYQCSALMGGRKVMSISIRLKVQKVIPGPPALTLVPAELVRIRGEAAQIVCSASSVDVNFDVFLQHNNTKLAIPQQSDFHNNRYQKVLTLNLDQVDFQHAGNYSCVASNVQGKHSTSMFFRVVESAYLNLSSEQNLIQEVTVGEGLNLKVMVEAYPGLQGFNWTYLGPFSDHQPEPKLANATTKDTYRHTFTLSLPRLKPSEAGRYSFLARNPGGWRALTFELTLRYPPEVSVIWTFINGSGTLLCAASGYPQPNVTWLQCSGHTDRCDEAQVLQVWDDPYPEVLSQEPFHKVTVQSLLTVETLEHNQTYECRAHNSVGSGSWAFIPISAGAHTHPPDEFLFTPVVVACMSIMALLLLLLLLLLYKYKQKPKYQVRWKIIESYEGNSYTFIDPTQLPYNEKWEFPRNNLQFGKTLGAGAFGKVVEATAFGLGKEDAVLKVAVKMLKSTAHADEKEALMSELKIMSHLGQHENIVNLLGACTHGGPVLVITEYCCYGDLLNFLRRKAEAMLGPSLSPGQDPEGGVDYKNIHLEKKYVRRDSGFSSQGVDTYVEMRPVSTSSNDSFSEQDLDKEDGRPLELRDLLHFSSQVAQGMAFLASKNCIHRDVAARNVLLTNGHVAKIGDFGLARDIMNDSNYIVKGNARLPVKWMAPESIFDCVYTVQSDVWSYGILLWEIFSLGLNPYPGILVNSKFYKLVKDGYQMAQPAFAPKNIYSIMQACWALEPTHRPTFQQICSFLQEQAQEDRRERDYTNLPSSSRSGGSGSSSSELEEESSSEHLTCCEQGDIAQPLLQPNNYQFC
Protocol: The ability of compounds of Formula I to inhibit cFMS activation in cells was determined by the following assay. THP-1 cells (human acute monocytic leukemia cell line) were serum-starved for 4 hours prior to treatment with compounds of Formula I for 1 hour. The concentration of compounds of Formula I was varied over a 9-point, 3-fold dilution series with 5,000 nM typically being the highest dose. Cell culture and treatment were carried out in a humidified 37° C., 5% CO2 incubator. Treated cells were stimulated with 250 ng/mL recombinant human MCSF for 1 minute to induce activation of cFMS. Cells were lysed in a manner which preserves phosphoproteins, and the lysate was analyzed by ELISA (R&D Systems, Human Phospho-M-CSF R DuoSet IC DYC3268), in which total cFMS protein in the lysate is captured and phosphotyrosine residues of cFMS are detected. A standard curve, made using purified phospho-M-CSF R protein, was used to quantify phospho-c-FMS in compound-treated wells. A standard 4-parameter logistic model was fit to the inhibitor dose response curves, with the IC50 being defined as the concentration of inhibitor giving 50 percent of control (POC).

c-KIT = molecular target: T2, c-KIT (Homo sapiens, UniProt P10721); assay: c-KIT Cell-Based Assay (Example D); settings: averaged IC50; phospho-c-KIT in M-07e cells stimulated with 150 ng/ml recombinant human SCF; read-out: cKIT Cell ELISA IC50
T2 construct: M-07e cells (human acute megakaryoblastic leukemia cell line) were serum-starved for 4 hours; endogenous in cells; host or cells: M-07e cells (human acute megakaryoblastic leukemia cell line)
T2 sequence (P10721 26-976): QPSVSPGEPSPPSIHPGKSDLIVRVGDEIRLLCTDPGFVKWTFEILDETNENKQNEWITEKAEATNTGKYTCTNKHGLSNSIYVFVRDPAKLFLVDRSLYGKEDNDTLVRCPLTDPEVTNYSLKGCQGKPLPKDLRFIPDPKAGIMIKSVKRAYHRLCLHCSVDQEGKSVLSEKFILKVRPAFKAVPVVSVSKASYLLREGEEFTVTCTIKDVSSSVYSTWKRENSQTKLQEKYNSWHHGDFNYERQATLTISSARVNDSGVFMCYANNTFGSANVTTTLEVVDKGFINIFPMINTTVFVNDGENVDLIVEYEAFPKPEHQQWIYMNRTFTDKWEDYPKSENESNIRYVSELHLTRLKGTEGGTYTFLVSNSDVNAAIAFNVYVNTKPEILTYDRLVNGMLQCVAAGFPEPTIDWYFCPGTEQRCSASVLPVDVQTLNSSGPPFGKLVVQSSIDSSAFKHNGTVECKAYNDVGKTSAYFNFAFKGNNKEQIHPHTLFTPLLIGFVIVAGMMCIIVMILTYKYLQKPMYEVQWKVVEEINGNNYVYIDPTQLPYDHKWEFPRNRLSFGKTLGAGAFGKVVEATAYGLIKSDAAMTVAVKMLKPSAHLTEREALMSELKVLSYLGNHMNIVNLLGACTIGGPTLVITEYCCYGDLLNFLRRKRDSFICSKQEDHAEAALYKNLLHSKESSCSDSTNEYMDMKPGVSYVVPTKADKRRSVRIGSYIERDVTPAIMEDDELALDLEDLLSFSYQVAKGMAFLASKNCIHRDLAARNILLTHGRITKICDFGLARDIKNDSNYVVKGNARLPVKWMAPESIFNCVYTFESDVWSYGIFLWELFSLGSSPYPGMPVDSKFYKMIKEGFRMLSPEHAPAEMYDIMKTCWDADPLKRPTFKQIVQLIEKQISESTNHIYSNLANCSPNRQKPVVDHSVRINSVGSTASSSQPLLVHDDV
Protocol: The ability of compounds of Formula I to inhibit c-KIT activation in cells was determined by the following assay. M-07e cells (human acute megakaryoblastic leukemia cell line) were serum-starved for 4 hours prior to treatment with compounds of Formula I for 1 hour. The concentration of compounds of Formula I was varied over a 9-point, 3-fold dilution series with 5,000 nM typically being the highest dose. Cell culture and treatment were carried out in a humidified 37° C., 5% CO2 incubator. Treated cells were stimulated with 150 ng/ml recombinant human SCF for 4 minutes to induce activation of c-KIT. Cells were lysed in a manner which preserves phosphoproteins, and the lysate was analyzed by ELISA (R&D Systems, Human Phospho-SCF R DuoSet IC DYC3527), in which total c-KIT protein in the lysate is captured and phosphotyrosine residues of c-Kit are detected. A standard curve, made using purified phospho-SCF R protein, was used to quantify phospho-c-KIT in compound-treated wells. A standard 4-parameter logistic model was fit to the inhibitor dose response curves, with the IC50 being defined as the concentration of inhibitor giving 50 percent of control (POC).

PDGFR beta = molecular target: T3, PDGFR beta (Homo sapiens, UniProt P09619); assay: Phospho PDGFR LICOR Cell Assay (Example B); type: cell-based; settings: averaged IC50; PDGFR beta phosphorylation in HS27 human fibroblast cell line, PDGF-BB stimulation 10 minutes, normalized to total ERK
T3 construct: endogenous in cells; host or cells: HS27 human fibroblast cell line
T3 sequence (P09619 33-1106): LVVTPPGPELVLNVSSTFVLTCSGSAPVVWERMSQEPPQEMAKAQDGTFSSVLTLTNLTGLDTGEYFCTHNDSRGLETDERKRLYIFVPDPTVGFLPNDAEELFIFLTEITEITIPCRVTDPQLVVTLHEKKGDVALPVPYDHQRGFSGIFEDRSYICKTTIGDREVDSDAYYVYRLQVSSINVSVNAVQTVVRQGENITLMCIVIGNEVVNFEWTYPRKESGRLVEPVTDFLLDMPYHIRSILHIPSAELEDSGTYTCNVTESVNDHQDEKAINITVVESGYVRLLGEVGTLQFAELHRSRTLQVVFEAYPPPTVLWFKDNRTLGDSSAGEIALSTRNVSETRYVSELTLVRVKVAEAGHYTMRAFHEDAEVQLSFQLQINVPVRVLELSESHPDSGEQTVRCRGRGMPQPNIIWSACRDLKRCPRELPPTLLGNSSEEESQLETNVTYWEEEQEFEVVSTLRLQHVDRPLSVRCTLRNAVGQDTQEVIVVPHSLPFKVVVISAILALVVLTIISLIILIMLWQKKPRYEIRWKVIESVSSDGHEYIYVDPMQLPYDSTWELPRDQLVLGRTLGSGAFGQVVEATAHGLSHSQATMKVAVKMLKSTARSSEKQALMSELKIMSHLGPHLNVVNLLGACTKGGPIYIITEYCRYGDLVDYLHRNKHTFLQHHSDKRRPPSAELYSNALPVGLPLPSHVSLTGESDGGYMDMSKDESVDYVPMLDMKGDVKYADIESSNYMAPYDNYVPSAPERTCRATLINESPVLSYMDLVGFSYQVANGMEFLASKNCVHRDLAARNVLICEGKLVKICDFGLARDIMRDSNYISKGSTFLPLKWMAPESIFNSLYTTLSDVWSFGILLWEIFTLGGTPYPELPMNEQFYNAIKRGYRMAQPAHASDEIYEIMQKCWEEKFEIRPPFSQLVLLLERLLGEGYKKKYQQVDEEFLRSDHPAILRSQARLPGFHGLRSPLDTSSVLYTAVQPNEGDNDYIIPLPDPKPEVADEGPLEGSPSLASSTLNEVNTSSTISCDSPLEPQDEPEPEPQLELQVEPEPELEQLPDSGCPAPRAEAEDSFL
Protocol: Compounds were screened for inhibition of PDGFR beta phosphorylation in the HS27 human fibroblast cell line. Cells were seeded into a 96 well tissue culture plate, then incubated overnight in a 37° C./5% CO2 incubator. The following day, cells were treated for one hour with test compound dilutions. After stimulation with PDGF-BB ligand for 10 minutes, cells were washed with PBS and fixed in 3.7% formaldehyde in PBS for 10 minutes. This was followed by washing in PBS/0.2% Triton X-100 and permeabilizing in 100% MeOH for 10 minutes. Cells were incubated in blocking buffer for 1 hour. Antibodies to phosphorylated PDGFRβ and total ERK were added to the cells and incubated for 3 hours. After washing with PBS/0.2% Triton X-100, the cells were incubated with fluorescently-labeled secondary antibodies for an additional hour. Cells were then washed with PBS and analyzed for fluorescence at both wavelengths using the Odyssey Infrared Imaging System (LI-COR Biosciences). Phosphorylated PDGFR signal was normalized to total ERK signal. A standard 4-parameter logistic model was fit to the inhibitor dose response curves, with the IC50 being defined as the concentration of inhibitor giving 50 percent of control (POC).

SMILES	IC50 (cFMS)	IC50 (c-KIT)	IC50 (PDGFR beta)
COC(=O)c1cccc(Cn2ncc3c(NC(=O)c4cnc5cc(OCCN6CCN(C)CC6)ccn45)cccc32)c1 [Example 96, Methyl 3-((4-(7-(2-(4-methylpiperazin-1-yl)ethoxy)imidazo[1,2-a]pyridine-3-carboxamido)-1H-indazol-1-yl)methyl)benzoate dihydrochloride]	0.115 µM	0.0038 µM	0.0146 µM
CN1CCN(CCOc2ccn3c(C(=O)Nc4cccc5c4cnn5Cc4cccc(C(=O)N(C)C)c4)cnc3c2)CC1 [Example 97, N-(1-(3-(dimethylcarbamoyl)benzyl)-1H-indazol-4-yl)-7-(2-(4-methylpiperazin-1-yl)ethoxy)imidazo[1,2-a]pyridine-3-carboxamide dihydrochloride]	0.0104 µM	0.0257 µM	0.0096 µM
CN1CCN(CCOc2ccn3c(C(=O)Nc4cccc5c4cnn5Cc4cccc(C(F)(F)F)c4)cnc3c2)CC1 [Example 98, 7-(2-(4-methylpiperazin-1-yl)ethoxy)-N-(1-(3-(trifluoromethyl)benzyl)-1H-indazol-4-yl)imidazo[1,2-a]pyridine-3-carboxamide dihydrochloride]	0.0263 µM	0.0049 µM	0.0057 µM
CN1CCN(CCOc2ccn3c(C(=O)Nc4cccc5c4cnn5Cc4cccc(C#N)c4)cnc3c2)CC1 [Example 99, N-(1-(3-cyanobenzyl)-1H-indazol-4-yl)-7-(2-(4-methylpiperazin-1-yl)ethoxy)imidazo[1,2-a]pyridine-3-carboxamide]	0.0056 µM	0.0114 µM	0.0064 µM
CN1CCN(CCOc2ccn3c(C(=O)Nc4c(Cl)ccc5c4cnn5Cc4cccc(C(F)(F)F)c4)cnc3c2)CC1 [Example 100, N-(5-chloro-1-(3-(trifluoromethyl)benzyl)-1H-indazol-4-yl)-7-(2-(4-methylpiperazin-1-yl)ethoxy)imidazo[1,2-a]pyridine-3-carboxamide]	0.0236 µM	0.0033 µM	0.006 µM
Cc1cccc(Cn2ncc3c(NC(=O)c4cnc5cc(OCCN6CCN(C)CC6)ccn45)ccc(Cl)c32)n1 [Example 101, N-(7-chloro-1-((6-methylpyridin-2-yl)methyl)-1H-indazol-4-yl)-7-(2-(4-methylpiperazin-1-yl)ethoxy)imidazo[1,2-a]pyridine-3-carboxamide trihydrochloride]	0.0436 µM	0.0305 µM	0.0237 µM
CN1CCN(CCOc2ccn3c(C(=O)Nc4cccc5c4cnn5Cc4cccnc4)cnc3c2)CC1 [Example 102, 7-(2-(4-methylpiperazin-1-yl)ethoxy)-N-(1-(pyridin-3-ylmethyl)-1H-indazol-4-yl)imidazo[1,2-a]pyridine-3-carboxamide trihydrochloride]	0.026 µM	0.0949 µM	0.0176 µM
CN1CCN(CCOc2ccn3c(C(=O)Nc4cccc5c4cnn5Cc4ccc(C(F)(F)F)cn4)cnc3c2)CC1 [Example 103, 7-(2-(4-Methylpiperazin-1-yl)ethoxy)-N-(1-((5-(trifluoromethyl)pyridin-2-yl)methyl)-1H-indazol-4-yl)imidazo[1,2-a]pyridine-3-carboxamide trihydrochloride]	0.0073 µM	0.0072 µM	0.0027 µM
CN1CCN(CCOc2ccn3c(C(=O)Nc4cccc5c4cnn5Cc4cccn(C)c4=O)cnc3c2)CC1 [Example 104, N-(1-((1-methyl-2-oxo-1,2-dihydropyridin-3-yl)methyl)-1H-indazol-4-yl)-7-(2-(4-methylpiperazin-1-yl)ethoxy)imidazo[1,2-a]pyridine-3-carboxamide dihydrochloride]	0.0337 µM	0.398 µM	0.0784 µM
CCOc1cccc(Cn2ncc3c(NC(=O)c4cnc5cc(OCCN6CCN(C)CC6)ccn45)cccc32)n1 [Example 105, N-(1-((6-ethoxypyridin-2-yl)methyl)-1H-indazol-4-yl)-7-(2-(4-methylpiperazin-1-yl)ethoxy)imidazo[1,2-a]pyridine-3-carboxamide]	0.0033 µM	0.0027 µM	0.0026 µM
CN1CCN(CCOc2ccn3c(C(=O)Nc4cccc5c4cnn5CCc4ccccn4)cnc3c2)CC1 [Example 107, 7-(2-(4-methylpiperazin-1-yl)ethoxy)-N-(1-(2-(pyridin-2-yl)ethyl)-1H-indazol-4-yl)imidazo[1,2-a]pyridine-3-carboxamide]	0.0448 µM	0.123 µM	0.158 µM
CN1CCN(CCOc2ccn3c(C(=O)Nc4cccc5c4cnn5Cc4ccc5[nH]cnc5c4)cnc3c2)CC1 [Example 108, N-(1-((1H-benzo[d]imidazol-5-yl)methyl)-1H-indazol-4-yl)-7-(2-(4-methylpiperazin-1-yl)ethoxy)imidazo[1,2-a]pyridine-3-carboxamide dihydrochloride]	0.0667 µM	0.181 µM	0.142 µM

Second part, the molecule after the results:

IC50 (cFMS)	IC50 (c-KIT)	IC50 (PDGFR beta)	SMILES
0.0469 µM	0.0948 µM	0.065 µM	COCCOc1ccn2c(C(=O)Nc3cccc4c3cnn4Cc3cccc(C(N)=O)c3)cnc2c1 [Example 94, N-(1-(3-carbamoylbenzyl)-1H-indazol-4-yl)-7-(2-methoxyethoxy)imidazo[1,2-a]pyridine-3-carboxamide]
0.0314 µM	0.0782 µM	0.0743 µM	CNC(=O)c1cccc(Cn2ncc3c(NC(=O)c4cnc5cc(OCCOC)ccn45)cccc32)c1 [Example 95, 7-(2-Methoxyethoxy)-N-(1-(3-(methylcarbamoyl)benzyl)-1H-indazol-4-yl)imidazo[1,2-a]pyridine-3-carboxamide]
0.159 µM	0.748 µM	0.558 µM	CN1CCN(CCOc2ccn3c(C(=O)Nc4cccc5c4cnn5Cc4cn(C)cn4)cnc3c2)CC1 [Example 106, N-(1-((1-methyl-1H-imidazol-4-yl)methyl)-1H-indazol-4-yl)-7-(2-(4-methylpiperazin-1-yl)ethoxy)imidazo[1,2-a]pyridine-3-carboxamide dihydrochloride]
0.38 µM	0.168 µM	1 µM	COCCOc1ccn2c(C(=O)Nc3cccc4c3cnn4CC3CC3)cnc2c1 [Example 110, N-(1-(cyclopropylmethyl)-1H-indazol-4-yl)-7-(2-methoxyethoxy)imidazo[1,2-a]pyridine-3-carboxamide]
0.15 µM	0.451 µM	0.449 µM	COCCOc1ccn2c(C(=O)Nc3cccc4c3cnn4Cc3ccncc3)cnc2c1 [Example 111, 7-(2-methoxyethoxy)-N-(1-(pyridin-4-ylmethyl)-1H-indazol-4-yl)imidazo[1,2-a]pyridine-3-carboxamide]
0.0337 µM	0.0689 µM	0.0167 µM	COCCOc1ccn2c(C(=O)Nc3cccc4c3cnn4Cc3ccccn3)cnc2c1 [Example 112, 7-(2-methoxyethoxy)-N-(1-(pyridin-2-ylmethyl)-1H-indazol-4-yl)imidazo[1,2-a]pyridine-3-carboxamide]
0.121 µM	0.331 µM	0.289 µM	COCCOc1ccn2c(C(=O)Nc3cccc4c3cnn4CC3CCOCC3)cnc2c1 [Example 113, 7-(2-methoxyethoxy)-N-(1-((tetrahydro-2H-pyran-4-yl)methyl)-1H-indazol-4-yl)imidazo[1,2-a]pyridine-3-carboxamide]
